The text below walks through data of patent US20250161422A1, “ARGINASE 2 VACCINE” (IO Biotech ApS, priority 2022, published 2025).

Assay [1] has as its system PBMCs / peptide-specific T-cell cultures. Put plainly: Intracellular cytokine staining for TNFα and IFNγ. The assay is classed as cell-based, human. The conditions noted are these: for T-cell subset that responds (ICS for TNFα and IFNγ): peptide-stimulated healthy donor PBMCs. How it is done:
PBMCs were in vitro stimulated with peptide as described above. At 10-14 days post-simulation, the cells were used for intracellular cytokine staining. […] After a 4-hour incubation period, the cells were washed and stained for the extracellular markers CD3-APC/H7, CD4-FITC, and CD8-PerCP, and dead cells were stained with FVS-510. Next, the cells were permeabilized using Fixation/Permeabilization buffer (Invitrogen), followed by staining with IFNγ-APC and TNFα-BV421. Data were acquired using a BD Canto II flow cytometer and analyzed using FlowJo.
(§1) ARG2-specific T-cell cultures were obtained by stimulation of PBMCs with ARG2-S05 peptide, followed by low-dose IL-2 (120 U/mL) the next day. At 12 days after peptide stimulation, the cells were re-stimulated with peptide, and IFNγ-secreting cells were isolated using magnetic beads. Next, these cells were expanded using a rapid expansion protocol, including feeder cells, CD3 antibody, and high-dose IL-2 (3000-6000 U/mL). On day 16-17, culture specificity was determined by stimulation with ARG2-S05 peptide and determination of the cytokine release by ICS.
To further characterize the ARG2-specific CD8^+ T cells, A2S05-specific T-cell cultures from four donors were established. Briefly, donor PBMCs were stimulated with A2S05 in vitro. 12 days later, peptide-specific T cells were re-stimulated and isolated using an IFNγ capture kit. IFNγ-producing cells were expanded using a rapid expansion protocol and the specificity was examined at 16-17 days after expansion by ICS for IFNγ and TNF.

Assay [2] concerns PBMCs from healthy donors or cancer patients. Put plainly: In vitro peptide stimulation of PBMCs and IFNγ ELISPOT. The settings on record: for IFNγ ELISPOT response, screening: PBMCs of five healthy HLA-A2+ donors, restimulated after 12-14 days; for IFNγ ELISPOT response, validation (repetition): healthy donors, repeat ELISPOT (FIG. 5); for IFNγ ELISPOT response in 17 HDs: 17 healthy donors of undetermined HLA-type. The assay is classed as cell-based, human. The protocol:
PBMCs from healthy donors or cancer patients were subjected to in vitro stimulation with ARG2-derived peptides by plating the cells with 10 μM peptide. The following day, the cells received low-dose IL-2 (120 U/ml) treatment. At 10-14 days after peptide stimulation, the cells were used for IFNγ ELISPOT. ELISPOT plates were coated with […] IFNγ capture antibody (MabTech) overnight. The next day, the plates were washed and blocked in X-vivo media followed by the plating of 2.5-3.5×10^5 PBMCs per well for ELISPOT, with and without restimulation with 5 μM peptide. A minimum of triplicate wells were set up pr. condition. The cells were incubated 14-16 hours before they were washed and a biotin-conjugated secondary antibody (Mabtech) was added, followed by a 2-hour incubation. Next, the cells were washed again, followed by incubation with streptavidin-conjugated alkaline phosphatase (Mabtech) for 1 hour. Finally, spots were developed by addition of BCIP/NBT substrate (Mabtech). Tap water was used to stop the reaction. Spots corresponding to IFNγ secretion were quantified by visualization on a CTL ImmunoSpot S6 Ultimate-V analyzer with ImmunoSpot software version 5.1. Peptide-specific IFNγ secreting cells were calculated by subtracting the average spot count in control wells from the average spot count in peptide-stimulated wells. […] Peptide pulsing was performed by incubating the target cells with 20 μM peptide for 1 hour, followed by two washes to remove unbound peptide. Effector cells with added peptide served as the positive control and […] plated without […] as the negative control. In ELISPOTs assays with immune cells as target cells, wells containing only effector cells were also included as controls. The average spot count from replicate wells was subtracted from the spot count of effector cells plated with the respective target cells. These 15 peptides ([…] to […]) were screened in peripheral blood mononuclear cells (PBMCs) from five healthy donors (HD), who were confirmed to be HLA-A2 positive (HLA-A2^+). PBMCs were stimulated with each peptide in vitro and restimulated in IFNγ ELISPOT after 12-14 days of culture.

The subject of assay [3] is splenocytes of vaccinated mice. Put plainly: Murine IFNγ ELISPOT on splenocytes. The assay is classed as in vivo, C57BL/6 mice. The settings on record: splenocytes of ARG2-vaccinated Pan02 mice plated with ARG1 peptide. How it is done: The purity of all synthesized peptides was >90%.
Mice were sacrificed at endpoint for tumor studies and one week after the last vaccination for the remaining studies. Spleens were harvested, smashed through a 70 μm filter, and red blood cells were lysed with Red Blood Cell Lysis Solution (Qiagen). 8×10^5 splenocytes were plated per well in IFNγ ELISPOT plates. IFNγ ELISPOT was performed as previously described. Tumors were harvested, cut into smaller pieces and enzymatically digested in RPMI medium containing 2.1 mg/ml collagenase type 1 (Worthington), 75 μg/ml DNase I (Worthington), 5 mM CaCl2, and 1% P/S. Cells were filtered through a 70 μm cell strainer and red blood cells were lysed as described above. CD45+tumor infiltrating lymphocytes (TILs) were isolated from tumor single-cell suspensions with CD45 microbeads (for MC38 and LL2 tumors) (Miltenyi Biotec) or with CD45 (TIL) microbeads (for B16-F10 tumors) (Miltenyi Biotec). The isolated CD45+ cells were rested overnight. 5×10^5 CD45+ cells were plated per well in IFNγ ELISPOT plates. For phenotyping ARG2 responses, CD8+ and CD4^+ T cells were isolated from the spleen of vaccinated mice with CD8a (Ly-2) and CD4 (L3T4) microbeads (Miltenyi Biotec), respectively, following manufacturer's instruction. Isolated T cells were rested overnight. […]

Assay [4] relates to splenocytes of vaccinated mice. The conditions noted are these: previously identified by the inventors; cited from earlier work.
In assay [5] the test system is murine model of lung cancer. The conditions noted are these: previously shown by the inventors; cited from earlier work.
The test system of assay [6] is HLA-A1+, HLA-C7+ or HLA-B8+ cancer cell lines (FM6, FM28, FM82, OCI-M2). Put plainly: IFNγ ELISPOT of A2S05-specific T cells with peptide-pulsed cancer cell lines. The assay is classed as cell-based, human. The conditions noted are these: for IFNγ ELISPOT reactivity of A2S05-specific T cells to peptide-pulsed HLA-B8+ FM6: metastatic malignant melanoma cell line FM6. How it is done:
Peptide-specific IFNγ secreting cells were calculated by subtracting the average spot count in control wells from the average spot count in peptide-stimulated wells. ELISPOT assays with ARG2-specific T cells (effector cells) and various immune cells or cancer cells as target cells were set up by adding 3×10^4-5×10^4 effector cells to ELISPOT wells followed by 5×10^3-10^4 target cells. Peptide pulsing was performed by incubating the target cells with 20 μM peptide for 1 hour, followed by two washes to remove unbound peptide. Effector cells with added peptide served as the positive control and target cells plated without […] as the negative control. In ELISPOTs assays with immune cells as target cells, wells containing only effector cells were also included as controls. The average spot count from replicate wells was subtracted from the spot count of effector cells plated with the respective target cells.
as §1
FM6 was confirmed to be HLA-B8^+ by flow cytometry and confirmed to express ARG2 by RT-qPCR (FIG. 6).

Assay [7] relates to PBMCs. The assay can be described thus: Ex vivo IFNγ ELISPOT. The assay is classed as cell-based, human. The settings on record: donors with strong in vitro responses. The protocol: PBMCs were thawed and rested overnight. The next day, 9×10^5 cells were plated pr. well. Control and peptide stimulations were performed in at least triplicate. The rest of the protocol was performed as described above.

With “GLLSALDLV (listed as Homo sapiens) [A2S14, human ARG2 positions 287-295]”, in assay [1], the “T-cell subset that responds (ICS for TNFα and IFNγ)” value is “reaction was from CD4^+ T cells”. In addition, in assay [2], the “IFNγ ELISPOT response, screening” value is “significant responses in PBMCs from three or more donors” and the “IFNγ ELISPOT response, validation (repetition)” value is listed as “strong IFNγ ELISPOT responses”.

For the sequence “ISAKDIVYI (listed as Mus musculus) [mARG1_169-177, murine ARG1 peptide from the corresponding region, control for specific recognition]”, the “cross-reactivity of vaccine-induced responses to ARG1 peptide” value in assay [3] is “no cross-reactivity”.

For “LLSALDLVEV (listed as Homo sapiens) [A2S15, human ARG2 positions 288-297]”, in assay [2], the “IFNγ ELISPOT response, screening” value is “significant responses in PBMCs from three or more donors” and the “IFNγ ELISPOT response, validation (repetition)” value is “did not show significant responses”.

Turning to “LSPPNIVYI (listed as Mus musculus) [mARG2_188-196]”, the “T-cell responses upon a single vaccination” value in assay [4] was “strong and frequent T-cell responses”. The “tumor growth in murine model of lung cancer” value in assay [5] is “induced tumor growth delay”.

As to “NLIVNPRSV (listed as Homo sapiens) [A2S05, human ARG2 positions 84-92]”, the “specificity of expanded peptide-specific T-cell cultures (ICS for IFNγ and TNF)” value in assay [1] (four donors, 16-17 days after expansion) is listed as “Highly specific CD8+cultures from all four donors”. The “T-cell subset that responds (ICS for TNFα and IFNγ)” value in assay [1] is “responses were from CD8^+ T-cells”. For the same sequence, the “IFNγ ELISPOT reactivity of A2S05-specific T cells to peptide-pulsed HLA-A1+ and HLA-C7+ cell lines” value in assay [6] (T cells from HD78 and HD93) is “no reactivity”. Besides, in assay [6] (all four T-cell cultures, FM28, FM82, OCI-M2), the “IFNγ ELISPOT reactivity of A2S05-specific T cells to additional HLA-B8+ cell lines” value was “reactivity against three additional HLA-B8^+ cell lines”. The “IFNγ ELISPOT reactivity of A2S05-specific T cells to peptide-pulsed HLA-B8+ FM6” value in assay [6] was “recognition and reactivity activity”. Besides, the “HLA restriction of the peptide” value in assay [6] (recognition and cytolytic activity against HLA-B8+ lines) is recorded as “HLA-B8 restriction”. In assay [2], the “IFNγ ELISPOT response in 17 HDs” value is recorded as “only few responses”; the “IFNγ ELISPOT response, screening” value is “significant responses in PBMCs from three or more donors”; the “IFNγ ELISPOT response, validation (repetition)” value is reported as “strong IFNγ ELISPOT responses”. Besides, the “donors with statistically significant IFNγ ELISPOT responses” value in assay [2] (38 donors with known HLA-A2 status (13 cancer patients, 25 healthy donors)) was 10 out of the 38. The “HLA-A2 restriction from donor responses” value in assay [2] (responses in both HLA-A2+ and HLA-A2- donors) was “not HLA-A2 restricted”. The “ex vivo IFNγ ELISPOT response” value in assay [7] is “strong and significant responses in PBMCs ex vivo”.

With “QIVKNPRSV (listed as Homo sapiens) [ARG1_65-73, reference compound]”, in assay [6], the “IFNγ ELISPOT reactivity of A2S05-specific T cells to peptide-pulsed HLA-B8+ FM6” value is recorded as “lack of reactivity”.

With “SLRGSLSRLLQTRVHSILKKSVHSVAVIGAPFS (listed as Homo sapiens) [A2L2, reference compound]”, the “IFNγ ELISPOT response in 17 HDs” value in assay [2] is “Strong and frequent responses”.
